Measurements as given in patent US20260317313A1, “DNA Polymerase Theta Inhibitors Containing Non-Saturated 5-Membered Heterocyclic Rings and Use Thereof” (Thomas Jefferson University, priority 2022, published 2026).
Where two headings read alike, the source gives them in different places.

Columns and labels:
[1] = target: T1, recombinant human Polq polymerase domain (residues 1792-2590) (Homo sapiens, UniProt O75417); test: Cy5 fluorescence assay of Polq polymerase enzymatic activity; type: biochemical; details: 60 nM primer-template, 50 uM dNTPs, 37° C., 18 min, 2.5% DMSO, triplicate
T1 sequence (O75417 1792-2590): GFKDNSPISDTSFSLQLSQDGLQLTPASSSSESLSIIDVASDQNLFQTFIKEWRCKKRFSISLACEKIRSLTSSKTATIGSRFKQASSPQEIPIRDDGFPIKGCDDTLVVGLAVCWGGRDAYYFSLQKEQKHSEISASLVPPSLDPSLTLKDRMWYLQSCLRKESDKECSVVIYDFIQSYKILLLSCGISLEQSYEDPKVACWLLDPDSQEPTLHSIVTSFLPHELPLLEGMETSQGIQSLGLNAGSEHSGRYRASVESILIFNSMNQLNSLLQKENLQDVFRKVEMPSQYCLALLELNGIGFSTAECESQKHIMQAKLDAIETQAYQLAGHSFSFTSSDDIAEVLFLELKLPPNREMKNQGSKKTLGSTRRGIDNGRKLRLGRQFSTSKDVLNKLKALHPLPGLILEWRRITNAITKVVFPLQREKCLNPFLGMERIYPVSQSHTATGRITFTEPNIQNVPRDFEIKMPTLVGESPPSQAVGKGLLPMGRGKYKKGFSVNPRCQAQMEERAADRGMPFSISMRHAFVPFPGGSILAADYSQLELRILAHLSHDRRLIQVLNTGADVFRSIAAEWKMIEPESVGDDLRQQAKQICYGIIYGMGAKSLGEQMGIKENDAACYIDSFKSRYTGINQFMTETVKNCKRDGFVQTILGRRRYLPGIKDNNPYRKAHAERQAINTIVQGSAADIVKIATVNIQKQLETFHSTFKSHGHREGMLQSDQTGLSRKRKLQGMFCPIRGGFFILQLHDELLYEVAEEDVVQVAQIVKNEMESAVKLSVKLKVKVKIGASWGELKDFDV
Protocol: The following Cy5 fluorescence assay was used to measure the ability of compounds to inhibit Polq polymerase domain in vitro. The fluorescent based assay was performed as follows: 60 nM of the pre-annealed primer-template containing a 5′ Cy5 fluorophore conjugated template strand (SEQ ID NO 6: 5′-/5Cy5/ […] GGACAG-3′), a downstream complementary oligo conjugated with a 3′ Blackhole quencher (SEQ ID NO 7: 5′-CTAAGCTCACAGTG/3IAbRQSp/-3′) and a primer strand (SEQ ID NO 8: 5′-CTGTCCTGCATGATG-3′) was mixed with 50 uM 2′-deoxyribonucleoside triphosphates (dNTPs), 0.1 mg/mL Bovine serum albumin (BSA), 0.01% NP-40, 10% glycerol, 1 mM dithiothreitol (DTT), 10 mM MgCl2, 25 mM TrisHCl pH 7.8 in the presence of 2.5% DMSO with or without various concentrations (7-point dilution series) of Polq small molecule inhibitors represented by Formula I at 37° C. in a volume of 40 μL.

BRCA2-null HCT116 cells = test: Survival of BRCA2-null HCT116 cells; type: cell-based; details: as compared to BRCA2-WT HCT116 cells; n=3
BRCA2-WT HCT116 cells = test: Survival of BRCA2-WT HCT116 cells; type: cell-based; details: n=3
BRCA2-null DLD1 cells = test: Survival of BRCA2-null DLD1 cells; type: cell-based; details: as compared to BRCA2-WT DLD1 cells; n=3
BRCA2-WT DLD1 cells = test: Survival of BRCA2-WT DLD1 cells; type: cell-based; details: n=3
[2] = Polq IC50, 5 nM Polq polymerase domain
[3] = 5 nM Polq polymerase domain, read-out: Polq IC50

SMILES	IC50 [1, 2] [nM]	other results
[2H]C([2H])([2H])N(C(=O)Oc1c(-n2cc[nH]c2=O)cc(C(F)(F)F)cc1C(F)(F)F)c1ccc(F)cc1 [Example 10, 2-(2-oxo-2,3-dihydro-1H-imidazol-1-yl)-4,6-bis(trifluoromethyl)phenyl 4-fluorophenyl(methyl-d3)carbamate]	2.9	
CN(C(=O)Oc1c(-c2cn(CCO)nn2)cc(C(F)(F)F)cc1C(F)(F)F)c1ccc(F)cc1 [Example 1]		IC50 ([1]; 5 nM Polq polymerase domain): 4.8 nM
[2H]C([2H])([2H])N(C(=O)Oc1c(-c2cn[nH]c2)cc(C(F)(F)F)cc1C(F)(F)F)c1ccc(F)cc1 [Example 26, 2-(1H-pyrazol-4-yl)-4,6-bis(trifluoromethyl)phenyl 4-fluorophenyl(methyl-d3)carbamate]	2	survival of BRCA2-null HCT116 cells (BRCA2-null HCT116 cells): significantly reduced; resistance of BRCA2-WT HCT116 cells to Polqi (BRCA2-WT HCT116 cells): mostly resistant; survival of BRCA2-null DLD1 cells (BRCA2-null DLD1 cells): significantly reduced; resistance of BRCA2-WT DLD1 cells to Polqi (BRCA2-WT DLD1 cells): mostly resistant
[2H]C([2H])([2H])N(C(=O)Oc1c(-c2nnn[nH]2)cc(C(F)(F)F)cc1C(F)(F)F)c1ccc(F)cc1 [Example 21, 2-(1H-1,2,3,4-tetrazol-5-yl)-4,6-bis(trifluoromethyl)phenyl N-(4-fluorophenyl)-N-(methyl-d3)carbamate]	3.2	
CN(C(=O)Oc1c(-c2cn(C3CC(O)C3)nn2)cc(C(F)(F)F)cc1C(F)(F)F)c1ccc(F)cc1 (stereo not drawn) [Example 17, 2-[1-(3-hydroxycyclobutyl)-1H-1,2,3-triazol-4-yl]-4,6-bis(trifluoromethyl)phenyl N-(4-fluorophenyl)-N-methylcarbamate]		IC50 [1, 3]: 1.5 nM
[2H]C([2H])([2H])N(C(=O)Cc1c(-c2cnn(C(=O)OC(C)(C)C)c2)cc(C(F)(F)F)cc1C(F)(F)F)c1ccc(F)cc1 [Example 22, Tert-butyl 4-(2-{[(4-fluorophenyl)(methyl-d3)carbamoyl]methyl}-3,5-bis(trifluoromethyl)phenyl)-1H-pyrazole-1-carboxylate]		IC50 [1, 3]: 24.5 nM
CN(C(=O)Oc1c(-c2cn(CCOCC(=O)Nc3cccc4c3C(=O)N(C3CCC(=O)NC3=O)C4=O)nn2)cc(C(F)(F)F)cc1C(F)(F)F)c1ccc(F)cc1 (stereo not drawn) [Example 5, 2-(1-(2-(2-((2-(2,6-dioxopiperidin-3-yl)-1,3-dioxoisoindolin-4-yl)amino)-2-oxoethoxy)ethyl)-1H-1,2,3-triazol-4-yl)-4,6-bis(trifluoromethyl)phenyl (4-fluorophenyl) (methyl)carbamate]	4.6	
CN(C(=O)Oc1c(-c2cn(CCOCCOCCOCCOCC(=O)Nc3cccc4c3C(=O)N(C3CCC(=O)NC3=O)C4=O)nn2)cc(C(F)(F)F)cc1C(F)(F)F)c1ccc(F)cc1 (stereo not drawn) [Example 8, 2-(1-(14-((2-(2,6-dioxopiperidin-3-yl)-1,3-dioxoisoindolin-4-yl)amino)-14-oxo-3,6,9,12-tetraoxatetradecyl)-1H-1,2,3-triazol-4-yl)-4,6-bis(trifluoromethyl)phenyl (4-fluorophenyl) (methyl)carbamate]	4.2	
[2H]C([2H])([2H])N(C(=O)Oc1c(-n2cc[nH]c2=O)cc(C(F)(F)F)cc1C(F)(F)F)c1ccc(F)c(Cl)c1F [Example 9, 2-(2-oxo-2,3-dihydro-1H-imidazol-1-yl)-4,6-bis(trifluoromethyl)phenyl 3-chloro-2,4-difluorophenyl(methyl-d3)carbamate]	2.4	
CN(C(=O)Oc1c(-c2cn(CC3(O)CNC3)nn2)cc(C(F)(F)F)cc1C(F)(F)F)c1ccc(F)cc1 [Example 14, 2-{1-[(3-hydroxyazetidin-3-yl)methyl]-1H-1,2,3-triazol-4-yl}-4,6-bis(trifluoromethyl)phenyl N-(4-fluorophenyl)-N-methylcarbamate]	2.3	
[2H]C([2H])([2H])N(C(=O)Oc1c(-c2cn(C3CN(S(C)(=O)=O)C3)nn2)cc(C(F)(F)F)cc1C(F)(F)F)c1ccc(F)c(Cl)c1F [Example 28, 2-[1-(1-methanesulfonylazetidin-3-yl)-1H-1,2,3-triazol-4-yl]-4,6-bis(trifluoromethyl)phenyl N-(3-chloro-2,4-difluorophenyl)-N-(methyl-d3)carbamate]	3.2	
[2H]C([2H])([2H])N(C(=O)Oc1c(-c2cn(C3CN(S(=O)(=O)CCN)C3)nn2)cc(C(F)(F)F)cc1C(F)(F)F)c1ccc(F)c(Cl)c1F [Example 33, 2-{1-[1-(2-aminoethanesulfonyl)azetidin-3-yl]-1H-1,2,3-triazol-4-yl}-4,6-bis(trifluoromethyl)phenyl N-(3-chloro-2,4-difluorophenyl)-N-(methyl-d3)carbamate]	2.9	
[2H]C([2H])([2H])N(C(=O)Oc1c(-c2cn(CC(O)CNC)nn2)cc(C(F)(F)F)cc1C(F)(F)F)c1ccc(F)cc1 (stereo not drawn) [Example 29, 2-{1-[2-hydroxy-3-(methylamino)propyl]-1H-1,2,3-triazol-4-yl}-4,6-bis(trifluoromethyl)phenyl N-(4-fluorophenyl)-N-(methyl-d3)carbamate]	3.4	
[2H]C([2H])([2H])N(C(=O)Oc1c(-c2cnn(CC(N)=O)c2)cc(C(F)(F)F)cc1C(F)(F)F)c1ccc(F)cc1 [Example 27, 2-(1-(2-amino-2-oxoethyl)-1H-pyrazol-4-yl)-4,6-bis(trifluoromethyl)phenyl 4-fluorophenyl(methyl-d3)carbamate]	1.8	survival of BRCA2-null HCT116 cells (BRCA2-null HCT116 cells): significantly reduced; resistance of BRCA2-WT HCT116 cells to Polqi (BRCA2-WT HCT116 cells): mostly resistant; survival of BRCA2-null DLD1 cells (BRCA2-null DLD1 cells): significantly reduced; resistance of BRCA2-WT DLD1 cells to Polqi (BRCA2-WT DLD1 cells): mostly resistant
CN(C(=O)Oc1c(-n2cc[nH]c2=O)cc(C(F)(F)F)cc1C(F)(F)F)c1ccc(F)cc1 [Example 2, 2-(2-oxo-2,3-dihydro-1H-imidazol-1-yl)-4,6-bis(trifluoromethyl)phenyl N-(4-fluorophenyl)-N-methylcarbamate]	4	
CN(C(=O)Oc1c(-c2cn(CCOCCOCC(=O)Nc3cccc4c3C(=O)N(C3CCC(=O)NC3=O)C4=O)nn2)cc(C(F)(F)F)cc1C(F)(F)F)c1ccc(F)cc1 (stereo not drawn) [Example 6, 2-(1-(2-(2-(2-((2-(2,6-dioxopiperidin-3-yl)-1,3-dioxoisoindolin-4-yl)amino)-2-oxoethoxy)ethoxy)ethyl)-1H-1,2,3-triazol-4-yl)-4,6-bis(trifluoromethyl)phenyl (4-fluorophenyl)(methyl)carbamate]	4	
